Results: publication PMC4503722, “Novel Phenotypic Outcomes Identified for a Public Collection of Approved Drugs from a Publicly Accessible Panel of Assays” (PLoS ONE, 2015)

target: T1, hKDR (Homo sapiens, UniProt P35968); assay: Cerep LANCE kinase assay hKDR (S1 assay 32); assay type: biochemical; conditions: assay number 32
T1 construct: purchased Cerep (LANCE kinase assay platform, contract assay)
T1 sequence (P35968 20-1356): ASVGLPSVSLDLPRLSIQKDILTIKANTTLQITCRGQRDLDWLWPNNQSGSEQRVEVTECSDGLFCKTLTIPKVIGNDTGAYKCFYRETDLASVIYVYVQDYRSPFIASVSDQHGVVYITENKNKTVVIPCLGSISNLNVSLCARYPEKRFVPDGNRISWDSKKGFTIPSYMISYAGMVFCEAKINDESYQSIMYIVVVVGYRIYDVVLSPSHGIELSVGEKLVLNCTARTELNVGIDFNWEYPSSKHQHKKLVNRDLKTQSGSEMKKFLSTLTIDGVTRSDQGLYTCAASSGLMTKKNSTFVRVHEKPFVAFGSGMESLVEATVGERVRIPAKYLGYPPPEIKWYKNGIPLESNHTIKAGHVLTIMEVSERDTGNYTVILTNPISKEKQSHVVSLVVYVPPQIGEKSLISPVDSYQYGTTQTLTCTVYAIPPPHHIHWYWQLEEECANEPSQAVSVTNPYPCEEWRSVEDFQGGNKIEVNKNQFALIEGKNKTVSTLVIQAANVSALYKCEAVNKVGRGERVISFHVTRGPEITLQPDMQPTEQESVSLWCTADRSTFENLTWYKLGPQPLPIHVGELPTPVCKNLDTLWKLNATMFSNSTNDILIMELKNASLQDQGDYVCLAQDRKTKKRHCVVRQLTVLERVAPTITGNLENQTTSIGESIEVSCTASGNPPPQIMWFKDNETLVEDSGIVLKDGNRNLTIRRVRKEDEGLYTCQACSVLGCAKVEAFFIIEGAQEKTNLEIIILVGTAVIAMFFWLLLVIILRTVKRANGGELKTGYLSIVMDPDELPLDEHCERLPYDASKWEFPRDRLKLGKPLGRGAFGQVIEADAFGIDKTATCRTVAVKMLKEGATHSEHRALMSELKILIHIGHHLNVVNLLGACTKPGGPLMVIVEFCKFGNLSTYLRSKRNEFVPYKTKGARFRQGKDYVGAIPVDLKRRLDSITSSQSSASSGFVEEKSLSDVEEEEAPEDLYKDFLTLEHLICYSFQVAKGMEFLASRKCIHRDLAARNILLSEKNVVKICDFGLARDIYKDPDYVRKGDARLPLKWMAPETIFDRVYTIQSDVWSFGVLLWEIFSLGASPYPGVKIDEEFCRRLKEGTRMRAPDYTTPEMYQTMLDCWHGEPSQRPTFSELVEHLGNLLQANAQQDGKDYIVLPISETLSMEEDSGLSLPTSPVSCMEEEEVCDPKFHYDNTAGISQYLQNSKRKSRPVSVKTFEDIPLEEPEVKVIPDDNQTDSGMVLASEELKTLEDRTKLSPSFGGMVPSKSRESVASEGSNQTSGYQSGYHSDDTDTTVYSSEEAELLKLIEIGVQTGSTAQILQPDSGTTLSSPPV

Q: `Cc1cc(O)c2ccccc2c1O` [NCGC00253592-01] was tested. Which “hKDR LANCE IC50/EC50” value did it give?
A: The value was 18.36 µM.

Q: Which “hKDR LANCE IC50/EC50” value does the source give for `[O-][n+]1ccccc1SSc1cccc[n+]1[O-]` [NCGC00164493-02] here?
A: Its value is over 20 µM.

Q: How did the “hKDR LANCE IC50/EC50” value turn out when `CC[C@@]1(O)C(=O)OCc2c1cc1n(c2=O)Cc2c-1nc1ccccc1c2/C=N/OC(C)(C)C` [NCGC00253588-01] was run?
A: Its value is over 20 µM.

system: alkaline phosphatase (ALP) activity in C2C12 cells; assay: not given; assay type: cell-based; conditions: assay number 6; concentration response

Q: For `Cc1cc(O)c2ccccc2c1O` [NCGC00253592-01], which “WntCondMedia_Alk Phos C2C12 IC50/EC50” value is on record?
A: Its value is 1.7548 µM.

Q: With `[O-][n+]1ccccc1SSc1cccc[n+]1[O-]` [NCGC00164493-02] as the compound, how does the “WntCondMedia_Alk Phos C2C12 IC50/EC50” value read?
A: Its value is 0.1306 µM.

Q: With `CC[C@@]1(O)C(=O)OCc2c1cc1n(c2=O)Cc2c-1nc1ccccc1c2/C=N/OC(C)(C)C` [NCGC00253588-01] as the compound, how does the “WntCondMedia_Alk Phos C2C12 IC50/EC50” value read?
A: The value was 0.0032 µM.

system: ECFC/ADSC co-culture cell nuclei number; assay: not given; conditions: not given

Q: Which “VEGF_ADSC\ECFC Angio Hoechst NucArea IC50/EC50” value does the source give for `Cc1cc(O)c2ccccc2c1O` [NCGC00253592-01] here?
A: The value was 9.854 µM.

Q: How did the “VEGF_ADSC\ECFC Angio Hoechst NucArea IC50/EC50” value turn out when `[O-][n+]1ccccc1SSc1cccc[n+]1[O-]` [NCGC00164493-02] was run?
A: The value was 1.7865 µM.

Q: Which “VEGF_ADSC\ECFC Angio Hoechst NucArea IC50/EC50” value does the source give for `CC[C@@]1(O)C(=O)OCc2c1cc1n(c2=O)Cc2c-1nc1ccccc1c2/C=N/OC(C)(C)C` [NCGC00253588-01] here?
A: Its value is 0.7994 µM.

system: nuclear β-catenin in C2C12 cells; assay: cells; assay type: cell-based; conditions: assay number 5; concentration response

Q: For `Cc1cc(O)c2ccccc2c1O` [NCGC00253592-01], which “WntCondMedia_bCatenin C2C12 IC50/EC50” value is on record?
A: The value was 4.3946 µM.

Q: How did the “WntCondMedia_bCatenin C2C12 IC50/EC50” value turn out when `[O-][n+]1ccccc1SSc1cccc[n+]1[O-]` [NCGC00164493-02] was run?
A: Its value is 0.9914 µM.

Q: With `CC[C@@]1(O)C(=O)OCc2c1cc1n(c2=O)Cc2c-1nc1ccccc1c2/C=N/OC(C)(C)C` [NCGC00253588-01] as the compound, how does the “WntCondMedia_bCatenin C2C12 IC50/EC50” value read?
A: The value was 1.1571 µM.

system: HeLa cells; assay: cells; assay type: cell-based; conditions: assay number 14; 2N

Q: For `Cc1cc(O)c2ccccc2c1O` [NCGC00253592-01], which “Hela CellCycMod PI 2N IC50/EC50” value is on record?
A: The value was over 10 µM.

Q: How did the “Hela CellCycMod PI 2N IC50/EC50” value turn out when `[O-][n+]1ccccc1SSc1cccc[n+]1[O-]` [NCGC00164493-02] was run?
A: The value was over 10 µM.

same assay, conditions: assay number 15; S phase

Q: Which “Hela CellCycMod PI S Phase IC50/EC50” value does the source give for `Cc1cc(O)c2ccccc2c1O` [NCGC00253592-01] here?
A: Its value is over 10 µM.

Q: With `[O-][n+]1ccccc1SSc1cccc[n+]1[O-]` [NCGC00164493-02] as the compound, how does the “Hela CellCycMod PI S Phase IC50/EC50” value read?
A: Its value is over 10 µM.

same assay, conditions: assay number 16; 4N

Q: `Cc1cc(O)c2ccccc2c1O` [NCGC00253592-01] was tested. Which “Hela CellCycMod PI 4N IC50/EC50” value did it give?
A: The value was over 10 µM.

Q: `[O-][n+]1ccccc1SSc1cccc[n+]1[O-]` [NCGC00164493-02] was tested. Which “Hela CellCycMod PI 4N IC50/EC50” value did it give?
A: Its value is over 10 µM.

Q: `CC[C@@]1(O)C(=O)OCc2c1cc1n(c2=O)Cc2c-1nc1ccccc1c2/C=N/OC(C)(C)C` [NCGC00253588-01] was tested. Which “Hela CellCycMod PI 4N IC50/EC50” value did it give?
A: The value was over 10 µM.

same assay, conditions: assay number 17; MI

Q: `Cc1cc(O)c2ccccc2c1O` [NCGC00253592-01] was tested. Which “Hela CellCycMod PI MI IC50/EC50” value did it give?
A: The value was over 10 µM.

Q: With `[O-][n+]1ccccc1SSc1cccc[n+]1[O-]` [NCGC00164493-02] as the compound, how does the “Hela CellCycMod PI MI IC50/EC50” value read?
A: Its value is 2.2317 µM.

Q: `CC[C@@]1(O)C(=O)OCc2c1cc1n(c2=O)Cc2c-1nc1ccccc1c2/C=N/OC(C)(C)C` [NCGC00253588-01] was tested. Which “Hela CellCycMod PI MI IC50/EC50” value did it give?
A: The value was over 10 µM.

same assay, conditions: assay number 18; cell number

Q: With `Cc1cc(O)c2ccccc2c1O` [NCGC00253592-01] as the compound, how does the “Hela CellCycMod PI Cell Number IC50/EC50” value read?
A: Its value is 2.4571 µM.

Q: How did the “Hela CellCycMod PI Cell Number IC50/EC50” value turn out when `[O-][n+]1ccccc1SSc1cccc[n+]1[O-]` [NCGC00164493-02] was run?
A: The value was 0.8425 µM.

Q: `CC[C@@]1(O)C(=O)OCc2c1cc1n(c2=O)Cc2c-1nc1ccccc1c2/C=N/OC(C)(C)C` [NCGC00253588-01] was tested. Which “Hela CellCycMod PI Cell Number IC50/EC50” value did it give?
A: The value was 0.0022 µM.

target: T2, hJAK2 (Homo sapiens, UniProt O60674); assay: Cerep LANCE kinase assay hJAK2 (S1 assay 33); assay type: biochemical; conditions: assay number 33
T2 construct: purchased Cerep (LANCE kinase assay platform, contract assay)
T2 sequence (O60674 whole entry): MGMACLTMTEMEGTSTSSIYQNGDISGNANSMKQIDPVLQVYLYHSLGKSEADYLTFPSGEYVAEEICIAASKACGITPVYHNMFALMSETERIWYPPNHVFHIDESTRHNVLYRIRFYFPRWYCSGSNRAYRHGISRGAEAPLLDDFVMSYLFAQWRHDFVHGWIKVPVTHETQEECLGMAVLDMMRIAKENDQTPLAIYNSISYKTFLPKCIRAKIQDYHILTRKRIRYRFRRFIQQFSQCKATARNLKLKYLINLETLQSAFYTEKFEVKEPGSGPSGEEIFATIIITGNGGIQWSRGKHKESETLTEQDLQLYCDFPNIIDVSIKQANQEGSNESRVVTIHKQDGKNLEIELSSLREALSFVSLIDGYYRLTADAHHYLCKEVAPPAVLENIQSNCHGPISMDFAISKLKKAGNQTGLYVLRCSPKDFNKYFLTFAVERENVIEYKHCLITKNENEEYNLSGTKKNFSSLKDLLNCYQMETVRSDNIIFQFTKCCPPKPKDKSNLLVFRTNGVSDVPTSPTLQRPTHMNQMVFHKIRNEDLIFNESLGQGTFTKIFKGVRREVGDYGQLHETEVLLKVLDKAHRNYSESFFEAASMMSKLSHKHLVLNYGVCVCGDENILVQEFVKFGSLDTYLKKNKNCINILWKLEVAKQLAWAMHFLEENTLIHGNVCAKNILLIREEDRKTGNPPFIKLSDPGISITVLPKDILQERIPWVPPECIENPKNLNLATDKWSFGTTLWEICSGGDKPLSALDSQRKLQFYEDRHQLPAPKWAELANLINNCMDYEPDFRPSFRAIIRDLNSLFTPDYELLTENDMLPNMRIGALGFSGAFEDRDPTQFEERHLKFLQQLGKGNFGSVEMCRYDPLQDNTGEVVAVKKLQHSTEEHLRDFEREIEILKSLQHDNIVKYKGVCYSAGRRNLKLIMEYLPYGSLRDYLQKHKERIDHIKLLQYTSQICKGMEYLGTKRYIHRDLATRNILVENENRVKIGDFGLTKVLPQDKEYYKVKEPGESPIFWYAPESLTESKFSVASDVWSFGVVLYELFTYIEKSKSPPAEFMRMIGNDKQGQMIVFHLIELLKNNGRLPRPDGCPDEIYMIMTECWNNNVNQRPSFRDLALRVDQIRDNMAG

Q: For `Cc1cc(O)c2ccccc2c1O` [NCGC00253592-01], which “hJAK2 LANCE IC50/EC50” value is on record?
A: The value was over 20 µM.

Q: How did the “hJAK2 LANCE IC50/EC50” value turn out when `[O-][n+]1ccccc1SSc1cccc[n+]1[O-]` [NCGC00164493-02] was run?
A: Its value is over 20 µM.

Q: `CC[C@@]1(O)C(=O)OCc2c1cc1n(c2=O)Cc2c-1nc1ccccc1c2/C=N/OC(C)(C)C` [NCGC00253588-01] was tested. Which “hJAK2 LANCE IC50/EC50” value did it give?
A: Its value is over 20 µM.

target: T3, hGSK3b (Homo sapiens, UniProt P49841); assay: Cerep LANCE kinase assay hGSK3b (S1 assay 34); assay type: biochemical; conditions: assay number 34
T3 construct: purchased Cerep (LANCE kinase assay platform, contract assay)
T3 sequence (P49841 whole entry): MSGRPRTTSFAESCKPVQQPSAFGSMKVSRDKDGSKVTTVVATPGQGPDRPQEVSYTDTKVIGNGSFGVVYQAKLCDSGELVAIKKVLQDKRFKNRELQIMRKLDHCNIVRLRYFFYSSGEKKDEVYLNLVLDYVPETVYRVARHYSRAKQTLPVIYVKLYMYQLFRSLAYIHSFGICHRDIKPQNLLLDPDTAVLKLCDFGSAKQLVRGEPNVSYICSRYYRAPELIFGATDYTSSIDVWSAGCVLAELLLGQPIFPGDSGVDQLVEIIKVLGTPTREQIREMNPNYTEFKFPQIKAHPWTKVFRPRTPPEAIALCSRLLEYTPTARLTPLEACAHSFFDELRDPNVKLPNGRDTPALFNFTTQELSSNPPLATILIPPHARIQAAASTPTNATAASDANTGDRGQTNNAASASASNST

Q: Which “hGSK3b LANCE IC50/EC50” value does the source give for `Cc1cc(O)c2ccccc2c1O` [NCGC00253592-01] here?
A: The value was 19.11 µM.

Q: How did the “hGSK3b LANCE IC50/EC50” value turn out when `[O-][n+]1ccccc1SSc1cccc[n+]1[O-]` [NCGC00164493-02] was run?
A: Its value is over 20 µM.

Q: For `CC[C@@]1(O)C(=O)OCc2c1cc1n(c2=O)Cc2c-1nc1ccccc1c2/C=N/OC(C)(C)C` [NCGC00253588-01], which “hGSK3b LANCE IC50/EC50” value is on record?
A: The value was over 20 µM.

target: T4, hFLT3 (Homo sapiens, UniProt P36888); assay: Cerep LANCE kinase assay hFLT3 (S1 assay 35); assay type: biochemical; conditions: assay number 35
T4 construct: purchased Cerep (LANCE kinase assay platform, contract assay)
T4 sequence (P36888 27-993): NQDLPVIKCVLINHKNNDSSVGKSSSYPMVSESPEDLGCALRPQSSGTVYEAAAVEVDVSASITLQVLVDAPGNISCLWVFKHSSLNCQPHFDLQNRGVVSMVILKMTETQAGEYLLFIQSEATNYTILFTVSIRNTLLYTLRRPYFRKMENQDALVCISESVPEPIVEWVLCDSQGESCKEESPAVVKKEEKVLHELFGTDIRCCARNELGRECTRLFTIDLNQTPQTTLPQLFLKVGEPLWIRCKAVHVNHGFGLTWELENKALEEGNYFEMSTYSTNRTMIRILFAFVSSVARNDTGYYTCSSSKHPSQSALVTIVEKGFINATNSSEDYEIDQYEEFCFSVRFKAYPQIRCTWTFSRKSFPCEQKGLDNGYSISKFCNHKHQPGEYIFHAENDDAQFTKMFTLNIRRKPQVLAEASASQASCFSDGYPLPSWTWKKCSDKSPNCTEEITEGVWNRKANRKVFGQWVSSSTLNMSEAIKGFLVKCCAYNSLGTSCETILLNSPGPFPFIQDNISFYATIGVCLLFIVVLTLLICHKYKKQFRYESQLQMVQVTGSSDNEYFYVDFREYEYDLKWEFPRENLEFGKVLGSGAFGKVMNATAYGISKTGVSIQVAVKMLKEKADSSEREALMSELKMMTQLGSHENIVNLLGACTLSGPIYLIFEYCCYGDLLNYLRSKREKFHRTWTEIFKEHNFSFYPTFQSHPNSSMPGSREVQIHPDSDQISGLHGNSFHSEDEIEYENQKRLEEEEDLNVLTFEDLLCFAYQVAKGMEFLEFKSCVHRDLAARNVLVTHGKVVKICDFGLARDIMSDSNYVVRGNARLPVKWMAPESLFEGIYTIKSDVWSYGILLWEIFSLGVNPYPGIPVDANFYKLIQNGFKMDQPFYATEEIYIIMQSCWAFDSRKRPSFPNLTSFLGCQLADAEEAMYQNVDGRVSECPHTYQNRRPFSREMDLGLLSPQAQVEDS

Q: How did the “hFLT3 LANCE IC50/EC50” value turn out when `Cc1cc(O)c2ccccc2c1O` [NCGC00253592-01] was run?
A: Its value is over 20 µM.

Q: `[O-][n+]1ccccc1SSc1cccc[n+]1[O-]` [NCGC00164493-02] was tested. Which “hFLT3 LANCE IC50/EC50” value did it give?
A: Its value is over 20 µM.

Q: With `CC[C@@]1(O)C(=O)OCc2c1cc1n(c2=O)Cc2c-1nc1ccccc1c2/C=N/OC(C)(C)C` [NCGC00253588-01] as the compound, how does the “hFLT3 LANCE IC50/EC50” value read?
A: Its value is over 20 µM.

target: T5, hp70S6K1 (RPS6KB1) (Homo sapiens, UniProt P23443); assay: Cerep LANCE kinase assay hp70S6K1 (S1 assay 31); assay type: biochemical; conditions: assay number 31
T5 construct: purchased Cerep (LANCE kinase assay platform, contract assay)
T5 sequence (P23443 whole entry): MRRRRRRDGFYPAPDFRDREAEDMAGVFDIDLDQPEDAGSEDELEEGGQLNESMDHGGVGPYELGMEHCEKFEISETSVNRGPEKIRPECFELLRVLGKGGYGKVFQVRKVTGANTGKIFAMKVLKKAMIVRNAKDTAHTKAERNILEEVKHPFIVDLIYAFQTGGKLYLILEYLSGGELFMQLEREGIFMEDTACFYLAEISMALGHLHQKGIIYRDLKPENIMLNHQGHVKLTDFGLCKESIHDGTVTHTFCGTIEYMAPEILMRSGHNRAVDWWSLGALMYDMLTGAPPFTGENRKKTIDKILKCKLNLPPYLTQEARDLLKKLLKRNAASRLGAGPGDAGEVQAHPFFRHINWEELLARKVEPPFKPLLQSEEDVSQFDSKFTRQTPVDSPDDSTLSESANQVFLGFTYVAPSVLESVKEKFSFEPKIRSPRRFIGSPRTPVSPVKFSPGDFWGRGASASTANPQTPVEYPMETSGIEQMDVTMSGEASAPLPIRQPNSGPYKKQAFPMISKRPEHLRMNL

Q: How did the “hp70S6K1 LANCE IC50/EC50” value turn out when `Cc1cc(O)c2ccccc2c1O` [NCGC00253592-01] was run?
A: Its value is over 20 µM.

Q: `[O-][n+]1ccccc1SSc1cccc[n+]1[O-]` [NCGC00164493-02] was tested. Which “hp70S6K1 LANCE IC50/EC50” value did it give?
A: The value was over 20 µM.

Q: `CC[C@@]1(O)C(=O)OCc2c1cc1n(c2=O)Cc2c-1nc1ccccc1c2/C=N/OC(C)(C)C` [NCGC00253588-01] was tested. Which “hp70S6K1 LANCE IC50/EC50” value did it give?
A: The value was over 20 µM.

system: endothelial tube formation in co-cultures of ECFCs and ADSCs treated with VEGF; assay: cells; assay type: cell-based, human; conditions: not given

Q: `Cc1cc(O)c2ccccc2c1O` [NCGC00253592-01] was tested. Which “VEGF_ADSC\ECFC Angio CD31 TubeArea IC50/EC50” value did it give?
A: Its value is 4.8933 µM.

Q: How did the “VEGF_ADSC\ECFC Angio CD31 TubeArea IC50/EC50” value turn out when `[O-][n+]1ccccc1SSc1cccc[n+]1[O-]` [NCGC00164493-02] was run?
A: The value was 0.719 µM.

Q: With `CC[C@@]1(O)C(=O)OCc2c1cc1n(c2=O)Cc2c-1nc1ccccc1c2/C=N/OC(C)(C)C` [NCGC00253588-01] as the compound, how does the “VEGF_ADSC\ECFC Angio CD31 TubeArea IC50/EC50” value read?
A: Its value is 0.002 µM.
